Results published in patent publication US9265268B2, “Method of handling bananas” (priority 2009, dated 2016).

Experiments:
Assay type in all cases: in vivo, Musa
[1] = system: bananas; test: Example US-5: various levels of 1-MCP; set-up: SS (sugar spots): scale not given here; conditions: 7 days
Description: Bananas were grown, shipped, and ripened as described in Example US-1. All bananas were in T-bags through the ripening cycle. At color stage 3.0 to 4.0, the bananas, still in T-bags, were placed in various airtight containers; in each container, a specified concentration of 1-MCP was released into the air; bananas remained in those containers for 12 hours. After that, half of each treatment group was transferred to MAP bags, and all bananas were placed into post-MCP storage as in US-1. At the end of 7 days, bananas were evaluated for sugar spots (SS), color stage (CS), and firmness (F). Firmness was measured with a Fruit Texture Analyzer (Güss Company, Republic of South Africa) using a probe of 8 mm diameter.

[2] = system: bananas; test: Example 2C: evaluation process C (22° C. after MCP); crown mold and crown rot; conditions: 7 days in bag at approx. 22° C., rating 0-3
Excerpt: Bananas may be inspected for the incidence of crown mold. Crown mold is observed and given a numerical rating as follows: 0 (apparently healthy and disease-free fruit); 1 (mycelia not easily detectable with naked eye, but obvious slight disease is visible on the crown); 2 (presence of some visible mycelia on the crown and moderate disease damage on the crown; 3 (clearly visible mycelia on the crown with severe disease damage on the crown).
Bananas may be inspected for the incidence of crown rot. When disease damage is apparent but no fungus is visible, crown rot is reported, with the degree of damage assessed as follows: 0 (apparently healthy and disease-free fruit); 1 (obvious slight disease is visible on the crown); 2 (moderate disease damage on the crown; 3 (severe disease damage on the crown).
Bananas were harvested at 13 weeks of age. Fruit bunches were separated into hands, then washed, and excess latex was removed in chlorinated water tanks using standard commercial practices. The washed hands of bananas were further broken into clusters and treated with fungicide. Clusters were placed into plastic bags; each bag held approximately 1.4 kg (3 lbs) of bananas. The bananas remained in these bags until they were removed for evaluation (see below).
At day 5 at approximately 4 pm, the bananas had reached color stage 2.5 to 3.5. Treatment groups PE-3-C, PE-10-C, MAP-3, and MAP-10 were then exposed to 1-MCP overnight at the concentrations shown above.
Some of the bananas from each group described in Example 2 were evaluated by process “C” as follows: After treatment groups PE-3-C, PE-10-C, MAP-3, and MAP-10 received exposure to 1-MCP, the bananas remained in their bags and were held at approximately 22° C. The bananas were inspected daily while they remained in the bags.
After 7 days at approximately 22° C., results were as follows: […]

[3] = system: bananas; test: Example US-7c: various number of bananas per bag (day on which sugar spots developed); conditions: for SS day (day during holding at 17.8° C. on which sugar spots developed): MAP/MCP: MAP type M, 1,000 ppb 1-MCP
Description: Bananas were handled and tested as in Example US-1, except that the number of bananas (“# of B”) per bag was varied. Results for MAP bags type M were compared at 0 1-MCP (“MAP only”) and at 1,000 ppb of 1-MCP (“MAP/MCP”). MAP only samples are comparative; MAP/MCP samples exemplify the present invention.
Also, the sugar spots were assessed. In this experiment, the number of the day during the holding at 17.8° C. on which sugar spots developed is noted (“SS day”). Bananas in T-bags (with either 0 or 1,000 ppb of 1-MCP) developed sugar spots on day 3.

[4] = MAP-10: MAP bag, 1000 ppb 1-MCP
[5] = PE-10-C: PE bag, 1000 ppb 1-MCP

CC1=CC1 [1-MCP, 1-methylcyclopropene]
CS (color stage) ([1]; MAP, 1 ppb 1-MCP): 5.2
F (firmness) ([1]; MAP, 1 ppb 1-MCP): 0.584 kg
SS (sugar spots) ([1]; MAP, 1 ppb 1-MCP): 1.8
CS (color stage) ([1]; MAP, 5 ppb 1-MCP): 4.8
F (firmness) ([1]; MAP, 5 ppb 1-MCP): 0.602 kg
SS (sugar spots) ([1]; MAP, 5 ppb 1-MCP): 0.5
CS (color stage) ([1]; MAP, 10 ppb 1-MCP): 5.4
F (firmness) ([1]; MAP, 10 ppb 1-MCP): 0.599 kg
SS (sugar spots) ([1]; MAP, 10 ppb 1-MCP): 1.5
CS (color stage) ([1]; MAP, 25 ppb 1-MCP): 5.6
F (firmness) ([1]; MAP, 25 ppb 1-MCP): 0.603 kg
SS (sugar spots) ([1]; MAP, 25 ppb 1-MCP): 0.8
CS (color stage) ([1]; MAP, 50 ppb 1-MCP): 5.5
F (firmness) ([1]; MAP, 50 ppb 1-MCP): 0.593 kg
SS (sugar spots) ([1]; MAP, 50 ppb 1-MCP): 1.0
CS (color stage) ([1]; MAP, 100 ppb 1-MCP): 5.2
F (firmness) ([1]; MAP, 100 ppb 1-MCP): 0.581 kg
SS (sugar spots) ([1]; MAP, 100 ppb 1-MCP): 1.0
CS (color stage) ([1]; MAP, 200 ppb 1-MCP): 4.9
F (firmness) ([1]; MAP, 200 ppb 1-MCP): 0.592 kg
SS (sugar spots) ([1]; MAP, 200 ppb 1-MCP): 0.8
CS (color stage) ([1]; MAP, 1000 ppb 1-MCP): 6.2
F (firmness) ([1]; MAP, 1000 ppb 1-MCP): 0.617 kg
SS (sugar spots) ([1]; MAP, 1000 ppb 1-MCP): 1.8
CS (color stage) ([1]; MAP, 5000 ppb 1-MCP): 6.2
F (firmness) ([1]; MAP, 5000 ppb 1-MCP): 0.602 kg
SS (sugar spots) ([1]; MAP, 5000 ppb 1-MCP): 1.2
CS (color stage) ([1]; MAP, 50000 ppb 1-MCP): 5.6
F (firmness) ([1]; MAP, 50000 ppb 1-MCP): 0.585 kg
SS (sugar spots) ([1]; MAP, 50000 ppb 1-MCP): 2.5
CS (color stage) ([1]; T-bag, 1 ppb 1-MCP): 6.6
F (firmness) ([1]; T-bag, 1 ppb 1-MCP): 0.561 kg
SS (sugar spots) ([1]; T-bag, 1 ppb 1-MCP): 2.2
CS (color stage) ([1]; T-bag, 5 ppb 1-MCP): 6.6
F (firmness) ([1]; T-bag, 5 ppb 1-MCP): 0.571 kg
SS (sugar spots) ([1]; T-bag, 5 ppb 1-MCP): 2.8
CS (color stage) ([1]; T-bag, 10 ppb 1-MCP): 6.6
F (firmness) ([1]; T-bag, 10 ppb 1-MCP): 0.568 kg
SS (sugar spots) ([1]; T-bag, 10 ppb 1-MCP): 2.0
CS (color stage) ([1]; T-bag, 25 ppb 1-MCP): 6.2
F (firmness) ([1]; T-bag, 25 ppb 1-MCP): 0.576 kg
SS (sugar spots) ([1]; T-bag, 25 ppb 1-MCP): 2.5
CS (color stage) ([1]; T-bag, 50 ppb 1-MCP): 7.0
F (firmness) ([1]; T-bag, 50 ppb 1-MCP): 0.591 kg
SS (sugar spots) ([1]; T-bag, 50 ppb 1-MCP): 2.2
CS (color stage) ([1]; T-bag, 100 ppb 1-MCP): 7.0
F (firmness) ([1]; T-bag, 100 ppb 1-MCP): 0.571 kg
SS (sugar spots) ([1]; T-bag, 100 ppb 1-MCP): 2.5
CS (color stage) ([1]; T-bag, 200 ppb 1-MCP): 7.0
F (firmness) ([1]; T-bag, 200 ppb 1-MCP): 0.589 kg
SS (sugar spots) ([1]; T-bag, 200 ppb 1-MCP): 3.0
CS (color stage) ([1]; T-bag, 1000 ppb 1-MCP): 7.0
F (firmness) ([1]; T-bag, 1000 ppb 1-MCP): 0.601 kg
SS (sugar spots) ([1]; T-bag, 1000 ppb 1-MCP): 3.0
CS (color stage) ([1]; T-bag, 5000 ppb 1-MCP): 6.2
F (firmness) ([1]; T-bag, 5000 ppb 1-MCP): 0.579 kg
SS (sugar spots) ([1]; T-bag, 5000 ppb 1-MCP): 3.0
CS (color stage) ([1]; T-bag, 50000 ppb 1-MCP): 6.6
F (firmness) ([1]; T-bag, 50000 ppb 1-MCP): 0.563 kg
SS (sugar spots) ([1]; T-bag, 50000 ppb 1-MCP): 2.8
Crown Mold ([2]; MAP-3: MAP bag, 300 ppb 1-MCP): 1.04
Crown Rot ([2]; MAP-3: MAP bag, 300 ppb 1-MCP): 1.18
Crown Mold [2, 4]: 1.00
Crown Rot [2, 4]: 1.18
Crown Mold ([2]; PE-3-C: PE bag, 300 ppb 1-MCP): 1.50
Crown Rot ([2]; PE-3-C: PE bag, 300 ppb 1-MCP): 1.72
Crown Mold [2, 5]: 1.09
Crown Rot [2, 5]: 1.27
SS day (day during holding at 17.8° C. on which sugar spots developed) ([3]; # of B 1): 4
SS day (day during holding at 17.8° C. on which sugar spots developed) ([3]; # of B 3): 5
SS day (day during holding at 17.8° C. on which sugar spots developed) ([3]; # of B 5): 6
SS day (day during holding at 17.8° C. on which sugar spots developed) ([3]; # of B 7): 8
SS day (day during holding at 17.8° C. on which sugar spots developed) ([3]; # of B 9): 8
SS day (day during holding at 17.8° C. on which sugar spots developed) ([3]; # of B 12): 8
day on which sugar spots developed ([3]; T-bags, 1,000 ppb of 1-MCP): 3
